Literature values as cited in patent US20210361700A1 (priority 2020, published 2021).
“Also recorded” adds a separate entry of the source. Like-named read-outs stand apart in the source and are kept apart here.

Columns and labels:
[1] = system: strep pneumonia; conditions: old mice; by reducing neutrophil migration and inflammatory cytokines
[2] = system: hepatitis B and tetanus vaccines; conditions: for antibody titer / antibody response to vaccines: in vivo
[3] = system: influenza
[4] = system: T cell function; conditions: for T cell function in older adults: supplementation
[5] = system: acute respiratory infections; conditions: for colds: secondary analysis, older adults
[6] = system: vascular endothelial function; conditions: meta-analyses of randomized controlled trials
[7] = molecular target: 3CLpro of SARS-CoV (Severe acute respiratory syndrome coronavirus, UniProt P0C6X7)
[8] = system: colds or influenza
[9] = system: influenza vaccine; conditions: experimental models, including influenza vaccine
[10] = system: TLR4 and NF-κB protein levels, ROS, acute tissue injury; conditions: models of lung injury
[11] = system: pro-inflammatory cytokines, such as TNF-α, IL-6 and IL-8; conditions: acute viral respiratory infection
[12] = system: endothelial cells
[13] = system: influenza, adenovirus, Ebola, and others; conditions: high affinity, nonspecific binding to viral surface proteins
[14] = molecular target: COVID-19 S-protein (Severe acute respiratory syndrome coronavirus 2, UniProt P0DTC2)
[15] = system: influenza; conditions: animal models of influenza
[16] = system: respiratory syndrome virus-1 vaccine; conditions: large mammal model
[17] = system: rhinovirus; conditions: rhinovirus infection in mice (COPD)
[18] = molecular target: 3CLpro of MERS (Middle East respiratory syndrome-related coronavirus, UniProt K9N7C7)
[19] = system: upper respiratory infection
[20] = system: acute respiratory infections; conditions: N=40; P=0.004; listed as quercetin
[21] = system: 3C-like protease (3CLpro) activity of COVID-19
[22] = system: SARS-CoV ACE2 receptor; conditions: studies with SARS-CoV; listed as quercetin
[23] = molecular target: Plpro protease of SARS-CoV (Severe acute respiratory syndrome coronavirus, UniProt P0C6X7)
[24] = system: common cold (often caused by coronaviruses); conditions: short-term zinc supplementation at onset of symptoms; 17 RCTs pooled; 95% CI 0.81 to 2.50; listed as zinc
[25] = system: acute respiratory infections; conditions: for lower respiratory infection: zinc supplementation, older adults
[26] = system: inflammation
[27] = molecular target: RNA-dependent RNA polymerase of SARS-CoV (Severe acute respiratory syndrome coronavirus, UniProt P0C6X7)
[28] = subset of subjects 40+ years (N=325), secondary analysis

Sequence of 3CLpro of MERS (K9N7C7 3248-3553 limits assumed): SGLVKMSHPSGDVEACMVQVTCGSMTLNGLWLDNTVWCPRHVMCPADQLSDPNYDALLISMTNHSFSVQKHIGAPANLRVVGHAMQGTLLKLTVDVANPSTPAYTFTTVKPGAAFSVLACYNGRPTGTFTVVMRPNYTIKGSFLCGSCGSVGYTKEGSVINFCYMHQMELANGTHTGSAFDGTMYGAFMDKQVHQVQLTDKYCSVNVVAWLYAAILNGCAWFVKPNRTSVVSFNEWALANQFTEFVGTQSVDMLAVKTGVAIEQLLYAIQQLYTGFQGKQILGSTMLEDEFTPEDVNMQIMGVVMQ

Compound: Vitamin E
- survival from strep pneumonia infection [1]: Increases survival from
- in vivo delayed-type hypersensitivity skin response [2]: improves
- antibody titer / antibody response to vaccines [2]: increase; also recorded: improves
- survival in viral pneumonia ([3]; mouse, in vivo): increases survival
- viral load in viral lung infections ([3]; mouse, in vivo): Reduces viral load in viral
- excessive lung inflammatory responses / inflammatory cytokine production ([3]; viral infection, influenza): dampens; also recorded: Reduces inflammatory
- cell-dividing and IL-producing capacities of naive T cells ([4]; naive T cells, but not memory T cells): increased
- T cell function in older adults [4]: increases
- risk of total acute respiratory infections ([5]; nursing home residents): reduced the risk
- colds [5]: Decreased colds in older adults
- colds ([5]; listed as vitamin E): reduced the risk
- pneumonia ([5]; subset of nursing home residents with polymorphism): Decreased pneumonia in a subset
- vascular endothelial function [6]: improve

Compound: O=C(O[C@@H]1Cc2c(O)cc(O)cc2O[C@@H]1c1cc(O)c(O)c(O)c1)c1cc(O)c(O)c(O)c1 [EGCG, epigallocatechin gallate]
- inhibition of 3CLpro of SARS-CoV [7]: Inhibits the (3CL^pro) activity
- OR, clinically diagnosed influenza infection ([8]; 95% CI=0.07-0.76): 0.25
- HR, days free from influenza infection ([8]; 95% CI=0.09-0.84): 0.27
- reduced clinically diagnosed influenza infection ([8]; in vivo): 75%
- reduced days free from influenza infection ([8]; in vivo): 73%
- immune response to vaccination [9]: potentiated
- TLR4 and NF-κB protein levels, ROS, acute tissue injury [10]: Suppresses inflammatory
- pro-inflammatory cytokines [11]: down-regulates; also recorded: Down-regulatcs pro-
- biomarkers of endothelial dysfunction such as ICAM-1 and VCAM-1 [12]: lowers
- endothelin-1 production ([12]; endothelial cells): reduces
- nitric oxide (NO) release ([12]; endothelial cells): induces
- excessive endothelial oxidative stress ([12]; through effects on the Nrf2/HO-1 pathway): reduces
- infectivity of a wide range of viruses [13]: Inhibits infectivity of a wide

Compound: O=c1c(O)c(-c2ccc(O)c(O)c2)oc2cc(O)cc(O)c12 [Quercetin, quercetin]
- inhibition of 3CLpro of SARS-CoV [7]: inhibits
- antagonist of S-protein binding to host ACE2 receptor, computer modeling [14]: other compounds as a top
- antagonist of S-protein binding to host ACE2 receptor, computer modeling ([14]; listed as quercetin): top potential antagonist
- superoxide radical formation, lung pathology, overall risk of infection induced by influenza [15]: Reduces superoxide
- viral replication and risk of acute infection [15]: inhibits
- response to respiratory syndrome virus-1 vaccine [16]: improves
- cytokine storm / inflammation and lung injury [17]: inhibits cytokine storm and reduces lung injury
- inhibition of 3CLpro of MERS [18]: inhibits
- effect on rates of upper respiratory infections ([19]; overall, N=1,002): no overall significant effect
- reduced duration of upper respiratory infection (total sick days) [19, 28]: (−31%) in a secondary analysis
- reduced severity of upper respiratory infection (symptom severity) [19, 28]: severity (−36%) and total sick days
- incidence of acute respiratory infections [20]: significantly reduced
- inhibition of 3CLpro activity of COVID-19 [21]: Inhibits the 3C-like protease
- binding to ACE2 receptor / antagonism of S-protein binding [22]: binds
- inhibition of Plpro protease of SARS-CoV [23]: inhibits
- effects in vitro on endothelial cell pathways ([12]; in vitro): several beneficial effects

Compound: zinc
- antibody titer / antibody response to vaccines [2]: increase; also recorded: restores
- T cell function in older adults [4]: Increases T cell function in older
- T cell function in older adults ([4]; listed as zinc): increases
- reduced days of illness [24]: -1.65 days
- acute respiratory infections in the elderly ([25]; double-blind, placebo controlled trial): reduced
- lower respiratory infection [25]: adults and reduces lower
- lower respiratory infection ([25]; listed as zinc): reduces
- inflammation [26]: Reduces inflammation.
- inhibition of RNA-dependent RNA polymerase [27]: Inhibits the RNA-dependent
